These are literature values, as cited in article PMC9262839 (Cancer Discovery, 2022).

For series [1] the following is noted: cited from earlier work.
In the next series the test system is NSCLC with EGFRexon20ins. The following applies: cited from earlier work.

Take `C=CC(=O)Nc1cc(Nc2ncc(C(=O)OC(C)C)c(-c3cn(C)c4ccccc34)n2)c(OC)cc1N(C)CCN(C)C` [Mobocertinib]: in series [1], the “patients with ≥grade 3 diarrhea” value is recorded as 21% and the “patients with ≥grade 3 treatment-related adverse events” value is “around 40%”.

B1: amivantamab: EGFR and MET bispecific antibody (antibody, chains of the INN, looked up, V domains shown)
VH: QVQLVESGGGVVQPGRSLRLSCAASGFTFSTYGMHWVRQAPGKGLEWVAVIWDDGSYKYYGDSVKGRFTISRDNSKNTLYLQMNSLRAEDTAVYYCARDGITMVRGVMKDYFDYWGQGTLVTVSS
VL: AIQLTQSPSSLSASVGDRVTITCRASQDISSALVWYQQKPGKAPKLLIYDASSLESGVPSRFSGSESGTDFTLTISSLQPEDFATYYCQQFNSYPLTFGGGTKVEIK
VH2: QVQLVQSGAEVKKPGASVKVSCETSGYTFTSYGISWVRQAPGHGLEWMGWISAYNGYTNYAQKLQGRVTMTTDTSTSTAYMELRSLRSDDTAVYYCARDLRGTNYFDYWGQGTLVTVSS
VL2: DIQMTQSPSSVSASVGDRVTITCRASQGISNWLAWFQHKPGKAPKLLIYAASSLLSGVPSRFSGSGSGTDFTLTISSLQPEDFATYYCQQANSFPITFGQGTRLEIK
For B1, in the series with NSCLC with EGFRexon20ins, the “objective response rate (ORR)” value was “around 40%”.
